Biological target: T1, human mineralocorticoid receptor protein (MR) (Homo sapiens, UniProt P08235)
T1 construct: made in house; host or cells: Spodoptera frugiperda Sf21 insect cells (baculovirus)
T1 sequence (P08235 1-984): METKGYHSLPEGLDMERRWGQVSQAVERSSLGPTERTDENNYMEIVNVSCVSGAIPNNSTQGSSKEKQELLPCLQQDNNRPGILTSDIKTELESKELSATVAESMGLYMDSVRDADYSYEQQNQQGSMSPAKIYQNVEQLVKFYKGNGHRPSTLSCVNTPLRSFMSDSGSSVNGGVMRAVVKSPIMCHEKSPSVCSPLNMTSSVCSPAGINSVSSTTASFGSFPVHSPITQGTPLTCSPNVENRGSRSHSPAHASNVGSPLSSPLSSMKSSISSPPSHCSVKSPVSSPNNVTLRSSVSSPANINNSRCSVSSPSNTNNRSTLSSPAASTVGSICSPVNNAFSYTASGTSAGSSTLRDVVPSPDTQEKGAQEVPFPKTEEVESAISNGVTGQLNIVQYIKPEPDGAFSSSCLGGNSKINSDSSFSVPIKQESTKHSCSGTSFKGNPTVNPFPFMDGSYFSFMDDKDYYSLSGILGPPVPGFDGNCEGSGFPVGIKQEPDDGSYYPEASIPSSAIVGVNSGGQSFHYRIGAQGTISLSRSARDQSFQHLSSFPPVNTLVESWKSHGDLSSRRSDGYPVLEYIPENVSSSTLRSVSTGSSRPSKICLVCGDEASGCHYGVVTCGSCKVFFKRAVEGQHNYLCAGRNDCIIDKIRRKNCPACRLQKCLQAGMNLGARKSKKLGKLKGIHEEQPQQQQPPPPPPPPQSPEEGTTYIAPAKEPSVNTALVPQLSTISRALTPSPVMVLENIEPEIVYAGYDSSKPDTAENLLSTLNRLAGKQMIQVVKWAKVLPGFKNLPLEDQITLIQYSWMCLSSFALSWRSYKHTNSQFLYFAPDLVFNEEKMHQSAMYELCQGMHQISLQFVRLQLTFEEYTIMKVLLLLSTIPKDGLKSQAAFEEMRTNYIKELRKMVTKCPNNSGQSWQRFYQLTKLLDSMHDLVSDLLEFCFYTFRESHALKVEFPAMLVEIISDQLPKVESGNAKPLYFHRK
Test: Mineralocorticoid receptor binding assay ([3H]aldosterone displacement, MR lysate)
Details: baculovirus-expressed MR lysate from Sf21 cells; 2-4 nM [3H]aldosterone; 16 hours at 4° C.; Cheng-Prusoff from IC50
Protocol: A baculovirus expression plasmid comprising cDNA encoding the human mineralocorticoid receptor protein (MR) was prepared using standard techniques. See e.g. E. A. Allegretto et. al. 268 J. Biol. Chem., 26625 (1993); G. Srinivasan and B. Thompson, 4 Mol. Endo., 209 (1990); and D. R. O'Reilly et. al., in “Baculovirus Expression Vectors”, D. R. O'Reilly et. al., eds., W.H. Freeman, New York, N.Y., pp. 139-179 (1992). That expression plasmid was co-transfected together with wild type Autographa californica multiple nuclear polyhedrosis virus DNA into Spodopter frugiperda-21 (Sf-21) cells to generate recombinant virus comprising MR cDNA. See e.g. O'Reilly, D. R., Miller, L. K., Luckow, V. A., Regulation of expression of a baculovirus ecdysteroid UDP glucosyltransferase gene. “Baculovirus Expression Vectors.” WH Freeman, N.Y., 139-179 (1992). […]
After incubation, 200 μl of 6.25% hydroxylapatite in assay buffer was added to each assay sample to precipitate the protein. […] Radioactivity in counts per minute (CPM) of each washed pellet was determined by liquid scintillation counter (MicroBeta™, Wallach).
Specific binding for a particular sample was calculated using the equation: (Sample CPM)−(Average Non-specific CPM) Average Non-specific CPM was defined as the amount of radioactivity from samples comprising an excess (i.e. 1000 nM) of unlabeled aldosterone. […]

Ki [nM]	Structure (SMILES)
650	N#Cc1cccc(-c2ccc3c4c2CCCC4OC(=O)N3)c1 (racemic) [Compound 102, (±)-7,8,9,9a-Tetrahydro-6-(3-cyanophenyl)-3H-naphtho[1,8-de][1,3]oxazin-2-one]
335	O=C1Nc2ccc(-c3cccc(C(F)(F)F)c3)c3c2C(CCC3)O1 (racemic) [Compound 101, (±)-7,8,9,9a-Tetrahydro-6-[(3-trifluoromethyl)phenyl]-3H-naphtho[1,8-de][1,3]oxazin-2-one]

Source: patent US7435733B2, “Mineralocorticoid receptor modulator compounds and methods, and pharmaceutical compositions containing these compounds” (Ligand Pharmaceuticals, Inc., priority 2004, dated 2008)
